# Key:
# Assay in all cases: 3' UTR reporter interaction score (median-centred robust z-score of log2 firefly/Renilla activity); higher = less repression of the 3' UTR reporter
# Details in all cases: HEK293T; 48 h
# MYCN = tested on: MYCN
# Method in brief: (§1)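 In at least two independent screens, HEK293T cells in 96-well plates (10,000/well) were co-transfected with DharmaFECT Duo using 100 ng firefly luc2P reporter with the gene's 3' UTR, 20 ng Renilla pRL-TK control and 2.5 pmol miRNA mimic, and dual-luciferase activities were read at 48 h. The interaction score, averaged across screens, is the per-plate robust z-score (median, median absolute deviation) of the log firefly/Renilla ratio, median-centred per miRNA, with more negative indicating interaction.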
# PHOX2B = tested on: PHOX2B
# Method in brief: as §1
# NOTCH1 = tested on: NOTCH1
# Method in brief: as §1
# RB1 = tested on: RB1
# Method in brief: as §1
# HRAS = tested on: HRAS
# Method in brief: as §1
# MYC = tested on: MYC
# Method in brief: as §1
# TP53 = tested on: TP53
# Method in brief: as §1
# FBXW7 = tested on: FBXW7
# Method in brief: as §1
# MYB = tested on: MYB
# Method in brief: as §1
# BRCA2 = tested on: BRCA2
# Method in brief: as §1
# MYT1L = tested on: MYT1L
# Method in brief: as §1
# ZEB2 = tested on: ZEB2
# Method in brief: as §1
# EZH2 = tested on: EZH2
# Method in brief: as §1
# PHF6 = tested on: PHF6
# Method in brief: as §1
Sequence,3' UTR reporter interaction score (MYCN),3' UTR reporter interaction score (PHOX2B),3' UTR reporter interaction score (NOTCH1),3' UTR reporter interaction score (RB1),3' UTR reporter interaction score (HRAS),3' UTR reporter interaction score (MYC),3' UTR reporter interaction score (TP53),3' UTR reporter interaction score (FBXW7),3' UTR reporter interaction score (MYB),3' UTR reporter interaction score (BRCA2),3' UTR reporter interaction score (MYT1L),3' UTR reporter interaction score (ZEB2),3' UTR reporter interaction score (EZH2),3' UTR reporter interaction score (PHF6)
AAUGACACGAUCACUCCCGUUGA,-0.341,-0.699,-1.98,-0.373,0.792,0.235,0.759,0.139,-0.032,-1.49,-0.645,0.878,0.0535,-0.214
AAUGGCGCCACUAGGGUUGUGCA,0.439,1.04,-0.589,-0.957,-0.363,-0.44,-0.436,-0.576,0.208,-0.437,-0.00801,0.407,-0.534,0.0523
AAUUGCACUUUAGCAAUGGUGA,0.969,0.339,-0.161,1.39,-0.0471,0.3,-1.5,-4.25,-0.332,1.07,0.317,-2.8,-0.64,2.86
ACAAAGUGCUUCCCUUUAGAGU,-0.183,1.29,0.795,-0.344,0.332,-0.239,-0.415,0.628,0.129,-0.366,-0.45,0.377,-0.0342,-0.537
ACAAAGUGCUUCCCUUUAGAGUGU,-0.406,1.18,0.486,0.896,0.36,-0.0807,-0.281,-0.043,0.347,-0.733,-0.448,-0.058,-0.507,-0.618
ACAGCAGGCACAGACAGGCAG,-0.201,0.072,0.191,0.215,-0.306,-0.0632,-0.292,-0.152,-0.134,-0.408,-1.17,1.63,-1.08,1.37
ACAGUCUGCUGAGGUUGGAGC,0.116,0.189,0.0668,-1.36,-0.732,-0.486,-0.638,-0.12,-0.0786,0.137,-0.4,1.65,0.0759,0.259
ACAUAGAGGAAAUUCCACGUUU,0.704,-1.91,0.306,0.821,-0.449,-0.782,1.11,-1.56,-0.866,1.12,-0.235,-1.25,0.213,1.27
ACCAUCGACCGUUGAUUGUACC,0.598,0.0128,-0.491,-0.388,-0.526,-0.128,0.659,-0.0205,0.0907,0.723,-2.64,0.294,0.789,1.81

# — the supplement of paper PMC5844555
